Data as given in the CheMixHub ionic liquid set.

Test: xn = mol fraction of the nth substance listed

C[N+]1(CCOCCOCCOCC[N+]2(C)CCCC2)CCCC1.N#C[N-]C#N.N#C[N-]C#N + CC[n+]1ccn(C)c1.N#C[N-]C#N + O=S(=O)([N-]S(=O)(=O)C(F)(F)F)C(F)(F)F.[Li+]
100 kPa, x1 = 0.252, x2 = 0.6578
Conditions	electrical conductivity [S/m]
298 K	0.522
303 K	0.63
313 K	0.854
323 K	1.16
333 K	1.48
343 K	1.86

CCCO + CC[n+]1ccn(C)c1.N#C[S-]
101 kPa, x2 = 0
Conditions	viscosity [mPa·s]
283.15 K	2.78
293.15 K	2.18
303.15 K	1.72
313.15 K	1.36
323.15 K	1.11

CC[n+]1ccn(C)c1.CS(=O)(=O)[O-] + CC[n+]1ccn(C)c1.N#C[S-] + O
viscosity [mPa·s], 100 kPa
Conditions	298.15 K	323.15 K
x2 = 0, x1 = 1	166.9	46.66
x2 = 0.03875, x1 = 0.1179	5.47	2.895
x2 = 0.0437, x1 = 0.133	6.29	3.29
x2 = 0.04778, x1 = 0.1454	6.96	3.598
x2 = 0.04973, x1 = 0.05117	2.902	1.645
x2 = 0.07374, x1 = 0.07586	4.308	2.366
x2 = 0.08472, x1 = 0.2579	14.08	6.86
x2 = 0.09552, x1 = 0.09828	5.65	3.039
x2 = 0.132, x1 = 0.4018	27.86	12.33
x2 = 0.1688, x1 = 0.1737	10.72	5.46
x2 = 0.1857, x1 = 0.5652	56.4	21.34
x2 = 0.1882, x1 = 0.06242	5.9	3.31
x2 = 0.2473, x1 = 0.7527	102.6	32.99
x2 = 0.2641, x1 = 0.2717	19.62	9.31
x2 = 0.3704, x1 = 0.3811	35.52	15.09
x2 = 0.3722, x1 = 0.1235	12.81	6.61
x2 = 0.4929, x1 = 0.5071	63.5	23.49
x2 = 0.5588, x1 = 0.1854	23.25	10.99
x2 = 0.7509, x1 = 0.2491	38.43	16.41

CCCO + CC[n+]1ccn(CCOC)c1.N#C[S-]
100 kPa, x2 = 0
Conditions	viscosity [mPa·s]
288.15 K	2.49
293.15 K	2.2
298.15 K	1.95
303.15 K	1.732
308.15 K	1.545
313.15 K	1.382
318.15 K	1.24

CCCO + CC[n+]1ccn(CCOC)c1.O=S(=O)([O-])C(F)(F)F
101 kPa, x2 = 0
Conditions	viscosity [mPa·s]
288.15 K	2.475
293.15 K	2.185
298.15 K	1.937
303.15 K	1.723
308.15 K	1.537
313.15 K	1.377
318.15 K	1.235

CCCC[n+]1ccn(C)c1.N#C[S-] + CN1CCCC1=O
viscosity [mPa·s], 101 kPa
Conditions	x1 = 0.0009705	x1 = 0.001495	x1 = 0.002117	x1 = 0.002433	x1 = 0.003004	x1 = 0.003507	x1 = 0.004097	x1 = 0.00451
288.15 K	2.139	2.145	2.153	2.158	2.163	2.166	2.172	2.178
298.15 K	1.804	1.808	1.811	1.813	1.821	1.827	1.834	1.843
308.15 K	1.563	1.575	1.582	1.586	1.593	1.604	1.616	1.623
318.15 K	1.295	1.305	1.311	1.317	1.322	1.327	1.337	1.349

C[n+]1ccn(CCCCCn2cc[n+](C)c2)c1.O=S(=O)([N-]S(=O)(=O)C(F)(F)F)C(F)(F)F.O=S(=O)([N-]S(=O)(=O)C(F)(F)F)C(F)(F)F + CN1CCCC1=O
viscosity [mPa·s], 101 kPa
Conditions	293.15 K	303.15 K	313.15 K	323.15 K	333.15 K
x1 = 0.3841	153.6	96	60.8	41.6	25.6
x1 = 0.5551	349	188.8	118.4	76.8	51.2
x1 = 1	1123	557	310	188.8	121.6

CC(=O)[O-].CC[n+]1ccn(C)c1 + CN(CCO)CCO
101 kPa
Conditions	electrical conductivity [S/m]	viscosity [mPa·s]
288.15 K, x1 = 0.2002	0.036	150.1
288.15 K, x1 = 0.4995	0.066	174
293.15 K, x1 = 0.4001	0.071	123.1
298.15 K, x1 = 0.4995	0.112	97.7
303.15 K, x1 = 0.2002	0.065	65.1
303.15 K, x1 = 0.5998	0.171	81.8
303.15 K, x1 = 1	0.358	102.4
308.15 K, x1 = 0.8999	0.384	73.4
313.15 K, x1 = 0.4995	0.229	48.5
313.15 K, x1 = 0.7003	0.343	52.3
313.15 K, x1 = 0.7998	0.401	54.1
318.15 K, x1 = 0.1002	0.051	29.4
318.15 K, x1 = 0.7003	0.426	42.4
318.15 K, x1 = 0.8999	0.598	46.3
318.15 K, x1 = 1	0.724	47.7
323.15 K, x1 = 0.1002	0.063	23.5
323.15 K, x1 = 1	0.883	39
328.15 K, x1 = 0.1002	0.075	18.9
328.15 K, x1 = 0.4995	0.414	26.5
328.15 K, x1 = 0.5998	0.519	27.6
333.15 K, x1 = 0.8999	1.06	25.7
333.15 K, x1 = 1	1.25	26.7
343.15 K, x1 = 0.4001	0.52	14.88
348.15 K, x1 = 0.4995	0.795	13.87
353.15 K, x1 = 0.2002	0.331	8.91
353.15 K, x1 = 0.5998	1.2	12.74
353.15 K, x1 = 0.7998	1.68	–
